According to US8846699B2, “Quinazoline derivatives as a multiplex inhibitor and method for the preparation thereof” (Hanmi Pharm. Co., Ltd., priority 2005, dated 2014):

Legend:
VEGFR2 (KDR) = VEGFR2 (KDR) (Homo sapiens (Human), UniProt P35968); assay: VEGFR2 (KDR) enzyme assay, fluorescence polarization; format: biochemical; details: 5 μM ATP, poly(Glu, Tyr) substrate
How it was run: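 Buffer: 20 mM HEPES pH 7.4 with 5 mM MgCl2, 2 mM MnCl2 and 50 μM Na3VO4. Compound (0.0001–10 μM) was premixed 10 min with VEGFR2 (200 ng/10 μl), then poly(Glu,Tyr) substrate (10 ng/ml) and 5 μM ATP were added for 1 h at room temperature. EDTA-quenched samples were read by FP after 30 min with antibody and tracer.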

EGFR1 (HER-1) = EGFR1 (HER-1) (Homo sapiens (Human), UniProt P00533); assay: EGFR1 (HER-1) enzyme assay, fluorescence polarization; format: biochemical; details: 100 μM ATP, poly(Glu, Tyr) substrate
[1] = system: colon and rectal cancer cell line, SW-620; assay: Inhibitory effect on growth of cancer cell line SW-620, SRB; format: cell-based; details: not having overexpressed EGFR and EGFR2
How it was run: (§1)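 Growth inhibition was measured by sulforhodamine-B staining (absorbance 570 nm) of TCA-fixed cells after 72 h compound exposure at 37 °C, 5% CO2. Test concentrations ran from 10 μM in 10-fold steps to 10^−4, with DMSO below 1%, in 10% FBS DMEM.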

[2] = system: Human Umbilical Vein Endothelial Cell (HUVEC); assay: Inhibitory effect on growth of human umbilical vein endothelial cell (HUVEC), MTS; format: cell-based; details: 10 ng/ml VEGF, absorbance 490 nm
[3] = system: skin cancer cell line, A431; assay: Inhibitory effect on growth of cancer cell line A431, SRB; format: cell-based; details: overexpressed EGFR1 (HER-1)
How it was run: as §1

[4] = system: breast cancer cell line, SK-Br3; assay: Inhibitory effect on growth of cancer cell line SK-Br3, SRB; format: cell-based; details: overexpressed EGFR2 (HER-2)
How it was run: as §1

Chain of VEGFR2 (KDR) (P35968 20-1356): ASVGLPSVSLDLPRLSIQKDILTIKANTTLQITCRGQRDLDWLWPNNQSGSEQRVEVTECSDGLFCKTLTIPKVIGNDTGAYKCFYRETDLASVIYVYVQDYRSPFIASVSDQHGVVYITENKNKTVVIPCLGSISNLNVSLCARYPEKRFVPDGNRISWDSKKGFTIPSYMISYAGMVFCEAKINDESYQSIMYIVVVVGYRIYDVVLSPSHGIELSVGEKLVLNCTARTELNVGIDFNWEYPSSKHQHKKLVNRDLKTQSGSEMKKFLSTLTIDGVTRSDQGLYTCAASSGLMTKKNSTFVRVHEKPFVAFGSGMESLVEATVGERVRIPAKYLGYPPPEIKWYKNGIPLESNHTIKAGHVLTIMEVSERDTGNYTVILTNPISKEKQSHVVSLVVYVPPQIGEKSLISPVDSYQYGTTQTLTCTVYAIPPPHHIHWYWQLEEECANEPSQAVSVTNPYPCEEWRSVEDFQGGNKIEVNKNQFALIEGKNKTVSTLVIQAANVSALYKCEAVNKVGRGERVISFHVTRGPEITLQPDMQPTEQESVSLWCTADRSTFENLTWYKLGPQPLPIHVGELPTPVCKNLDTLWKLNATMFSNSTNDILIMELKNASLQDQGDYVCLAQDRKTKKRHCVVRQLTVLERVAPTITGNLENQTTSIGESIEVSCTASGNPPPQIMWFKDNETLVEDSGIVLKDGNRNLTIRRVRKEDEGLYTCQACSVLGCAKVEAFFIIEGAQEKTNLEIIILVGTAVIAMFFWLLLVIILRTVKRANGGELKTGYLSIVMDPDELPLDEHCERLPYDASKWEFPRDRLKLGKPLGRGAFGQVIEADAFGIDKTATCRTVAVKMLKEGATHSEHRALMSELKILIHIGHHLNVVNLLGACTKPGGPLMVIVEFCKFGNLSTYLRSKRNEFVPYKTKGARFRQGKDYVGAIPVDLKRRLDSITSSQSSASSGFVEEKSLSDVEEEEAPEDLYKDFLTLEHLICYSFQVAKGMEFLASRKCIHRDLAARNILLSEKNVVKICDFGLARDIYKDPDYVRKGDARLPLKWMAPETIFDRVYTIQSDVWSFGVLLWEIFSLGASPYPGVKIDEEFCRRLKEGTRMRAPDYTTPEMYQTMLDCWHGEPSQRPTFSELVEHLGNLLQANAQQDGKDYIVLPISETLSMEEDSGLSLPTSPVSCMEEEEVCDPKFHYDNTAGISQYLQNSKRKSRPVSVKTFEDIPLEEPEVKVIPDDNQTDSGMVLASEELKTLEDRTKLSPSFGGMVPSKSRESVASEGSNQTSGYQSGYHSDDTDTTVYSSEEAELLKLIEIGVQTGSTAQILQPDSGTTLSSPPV

Row | Compound | IC50 (VEGFR2 (KDR)) [µM] | IC50 (EGFR1 (HER-1)) [µM] | IC50 ([1]; 72 hours) [µM] | IC50 ([2]; 96 hours) [µM] | IC50 ([3]; 72 hours) [µM] | IC50 ([4]; 72 hours) [µM] | IC50 ([1]; Homo sapiens, 72 h) [µM] | IC50 ([2]; Homo sapiens, 96 h) [µM] | IC50 ([3]; Homo sapiens, A-431, 72 h) [µM] | IC50 ([4]; Homo sapiens, SK-BR-3, 72 h) [µM]
1 | C=CC(=O)Nc1cc2c(Nc3ccc(Br)c(Cl)c3F)ncnc2cc1OC[C@@H](C)NC(=O)CN(C)C [Example 159] | 0.419 | 0.286 | 6.65 | 0.423 | 0.254 | 0.162 |  |  |  | 
2 | C=CC(=O)Nc1cc2c(Nc3ccc(Br)cc3F)ncnc2cc1OCC(CC)NC(=O)CN(C)C (stereo not drawn) [Example 160, N-{4-(4-bromo-2-fluoro-phenylamino)-7-[2-(2-dimethylamino-acetylamino)-butoxy]-quinazolin-6-yl}-acrylamide] | 0.984 | 0.023 |  |  |  |  | 6.55 | 0.867 | 0.055 | 0.096
3 | C=CC(=O)Nc1cc2c(Nc3ccc(Br)cc3F)ncnc2cc1OCCNC(=O)C(COC)N(C)C (stereo not drawn) [Example 161, N-{4-(4-bromo-2-fluoro-phenylamino)-7-[2-(2-dimethylamino-3-methoxy-propionylamino)-ethoxy]-quinazolin-6-yl}-acrylamide] | 1.12 | 0.057 |  |  |  |  | 10 | 1.23 | 0.095 | 0.118
4 | C=CC(=O)Nc1cc2c(Nc3ccc(Br)c(Cl)c3F)ncnc2cc1OC[C@H](C)NC(=O)CN(C)C [Example 163, (S)—N-4-(4-bromo-3-chloro-2-fluoro-phenylamino)-7-[2-(2-dimethylamino-acetylamino)-propoxy]-quinazolin-6-yl-acrylamide] | 0.722 | 0.012 | 10 | 0.735 | 0.018 | 0.045 |  |  |  | 
5 | C=CC(=O)Nc1cc2c(Nc3ccc(Br)c(Cl)c3F)ncnc2cc1OC[C@@H](C)NC(=O)CN(C)C [Example 164, (R)—N-4-(4-bromo-3-chloro-2-fluoro-phenylamino)-7-[2-(2-dimethylamino-acetylamino)-propoxy]-quinazolin-6-yl-acrylamide] | 0.713 | 0.014 | 8.97 | 0.754 | 0.019 | 0.036 |  |  |  | 
6 | C=CC(=O)Nc1cc2c(Nc3ccc(Br)c(Cl)c3F)ncnc2cc1OCCNC(=O)OC [Example 165, {2-[6-acryloylamino-4-(4-bromo-3-chloro-2-fluoro-phenylamino)-quinazolin-7-yloxy]-ethyl}-carbamic acid methylester] | 0.079 | 0.098 |  |  |  |  | 9.77 | 0.189 | 0.137 | 0.198
7 | C=CC(=O)Nc1cc2c(Nc3ccc(Br)cc3F)ncnc2cc1OCCNC(=O)CN(CC)CC [Example 167, N-{4-(4-bromo-2-fluoro-phenylamino)-7-[2-(2-diethylamino-acetylamino)-ethoxy]-quinazolin-6-yl}-acrylamide] | 0.462 | 0.026 |  |  |  |  | 10 | 0.108 | 0.042 | 0.103
8 | C=CC(=O)Nc1cc2c(Nc3ccc(Br)c(Cl)c3F)ncnc2cc1OCCNC(=O)NCC [Example 168, N-{4-(4-bromo-3-chloro-2-fluoro-phenylamino)-7-[2-(3-ethyl-ureido)-ethoxy]-quinazolin-6-yl}-acrylamide] | 0.038 | 0.008 |  |  |  |  | 10 | 0.117 | 0.012 | 0.032
9 | C=CC(=O)Nc1cc2c(Nc3ccc(Br)c(Cl)c3F)ncnc2cc1OCCNC(=O)NCCC [Example 169, N-{4-(4-bromo-3-chloro-2-fluoro-phenylamino)-7-[2-(3-propyl-ureido)-ethoxy]-quinazolin-6-yl}-acrylamide] | 0.128 | 0.026 |  |  |  |  | 9.1 | 0.233 | 0.035 | 0.067
10 | C=CC(=O)Nc1cc2c(Nc3ccc(Br)c(Cl)c3F)ncnc2cc1OCCNC(=S)NCC [Example 170, N-{4-(4-bromo-3-chloro-2-fluoro-phenylamino)-7-[2-(3-ethyl-thioureido)-ethoxy]-quinazolin-6-yl}-acrylamide] | 0.189 | 0.068 |  |  |  |  | 8.25 | 0.287 | 0.089 | 0.043
11 | C=CC(=O)Nc1cc2c(Nc3ccc(Br)cc3F)ncnc2cc1OCC1CCN(C(=O)NCC)CC1 [Example 171, 4-[6-acryloylamino-4-(4-bromo-2-fluoro-phenylamino)-quinazolin-7-yloxymethyl]-piperidine-1-carboxylic acid ethylamide] | 0.136 | 0.02 |  |  |  |  | 10 | 0.15 | 0.025 | 0.147
12 | C=CC(=O)Nc1cc2c(Nc3cc(OC)c(Cl)cc3OC)ncnc2cc1OCCNC(C)=O [Example 172, N-[7-(2-acetylamino-ethoxy)-4-(4-chloro-2,5-dimethoxy-phenylamino)-quinazolin-6-yl]-acrylamide] | 0.09 | 0.087 |  |  |  |  | 10 | 0.125 | 0.091 | 3.3
13 | C=CC(=O)Nc1cc2c(Nc3ccc(Br)cc3F)ncnc2cc1OCCNC(=O)C(C)N (stereo not drawn) [Example 173, N-[7-[2-(2-amino-propionylamino)-ethoxy]-4-(4-bromo-2-fluoro-phenylamino)-quinazolin-6-yl]-acrylamide] | 0.165 | 0.018 |  |  |  |  | 10 | 0.213 | 0.038 | 0.504
14 | N-{2-[6-acryloylamino-4-(4-bromo-2,3-difluoro-phenylamino)-quinazolin-7-oxy]-ethyl}-4-dimethylamino-butylamide [Example 127] | 0.958 | 0.568 | 6.51 | 0.676 | 0.698 | 1.02 |  |  |  | 
15 | N-{2-[6-acryloylamino-4-(4-bromo-2-fluoro-phenylamino)-quinazolin-7-yloxy]-ethyl}-3-dimethylamino-butylamide [Example 75] | 0.658 | 0.325 | 2.66 | 0.69 | 0.452 | 0.658 |  |  |  | 
16 | N-{2-[6-acryloylamino-4-(4-bromo-2-fluoro-phenylamino)-quinazolin-7-yloxy]-ethyl}-4-dimethylamino-butylamide [Example 66] | 0.125 | 0.021 | 10 | 0.238 | 0.011 | 0.103 |  |  |  | 
17 | N-{2-[6-acryloylamino-4-(4-bromo-2-fluoro-phenylamino)-quinazolin-7-yloxy]-ethyl}-butylamide [Example 51] | 0.954 | 0.032 | 10 | 0.987 | 0.033 | 0.194 |  |  |  | 
18 | N-{2-[6-acryloylamino-4-(4-bromo-2-fluoro-phenylamino)-quinazolin-7-yloxy]-ethyl}-malonic acid [Example 70] | 0.279 | 0.956 | 9.57 | 0.365 | 0.973 | 10 |  |  |  | 
19 | N-{2-[6-acryloylamino-4-(4-bromo-3-chloro-2-fluoro-phenylamino)-quinazolin-7-yloxy]-ethyl}-4-dimethylamino-butylamide [Example 148] | 0.206 | 0.028 | 2.32 | 0.348 | 0.03 | 0.04 |  |  |  | 
